Test results published in US20250099487A1, “COMPOSITION FOR PREVENTING OR TREATING PULMONARY FIBROSIS, COMPRISING TAURODEOXYCHOLIC ACID OR PHARMACEUTICALLY ACCEPTABLE SALT THEREOF AS ACTIVE INGREDIENT” (SHAPERON INC., priority 2022, published 2025).

Columns and labels:
[1] = Body weight changes in bleomycin-induced idiopathic pulmonary fibrosis animal model; type: in vivo, C57BL/6 mice; settings: HY209 administration group vs control group; oral BID Day 7-Day 21; measured daily
Procedure: (§1) Specifically, 9-week-old C57BL/6 mice were purchased and allowed to adapt to their environment for one week before the experiment was conducted. The experimental animals were maintained under conditions of 22±2° C., 55±10% relative humidity, and a 12-hour light/dark cycle. Water was provided ad libitum, and sterilized feed was used, allowing free access to food.
(§2) The pulmonary fibrosis group was orally administered a vehicle (0.5% CMC (carboxymethylcellulose) solution) at a dose of 10 mL/kg twice daily, while the experimental group was orally administered HY209 formulated in a 0.5% CMC solution to achieve final concentrations of 10, 30, and 60 mg/kg, also twice daily. The comparison group (Nintedanib administration group) was orally administered Nintedanib, formulated in a vehicle (0.1% Natrosol; Hydroxyethylcellulose solution) to achieve a final concentration of 60 mg/kg, twice daily. The pulmonary fibrosis group (Natrosol administration group) for comparison with the Nintedanib administration group received 10 mL/kg of 0.1% Natrosol solution orally twice daily. The control group was administered saline instead of bleomycin and received a vehicle (0.5% CMC (carboxymethylcellulose) solution) at a dose of 10 mL/kg orally twice daily.
Specifically, the body weight of the mice in each group was measured daily throughout the course of the experiment.

[2] = system: bleomycin-induced idiopathic pulmonary fibrosis animal model; experiment: Lung weight changes in bleomycin-induced idiopathic pulmonary fibrosis animal model; type: in vivo, C57BL/6 mice
Procedure: Specifically, 9-week-old C57BL/6 mice were purchased and allowed to adapt to their environment for one week before the experiment was conducted. […] Water was provided ad libitum, and sterilized feed was used, allowing free access to food. […] The control group was administered saline instead of bleomycin and received a vehicle (0.5% CMC (carboxymethylcellulose) solution) at a dose of 10 mL/kg orally twice daily. Specifically, the mice in each group were sacrificed upon completion of the experiment, and their lungs were excised. The weights of the excised lungs were then measured.

[3] = system: bleomycin-induced idiopathic pulmonary fibrosis animal model; experiment: Histopathological evaluation of pulmonary fibrosis (Crossman's Trichrome, Matsuse modification of the Ashcroft score); type: in vivo, C57BL/6 mice
Procedure: Specifically, 9-week-old C57BL/6 mice were purchased and allowed to adapt to their environment for one week before the experiment was conducted. […] Water was provided ad libitum, and sterilized feed was used, allowing free access to food. […] The control group was administered saline instead of bleomycin and received a vehicle (0.5% CMC (carboxymethylcellulose) solution) at a dose of 10 mL/kg orally twice daily. Specifically, the mice in each group were sacrificed upon completion of the experiment, and their lungs were excised. The excised lungs were embedded in paraffin for histopathological evaluation and stained according to the Crossman's Trichrome method (Gray P. The Microtomist's Formulary and Guide. Published by Robert E. Krieger Publishing Co.). The histological changes in the lungs were assessed using the Matsuse modification of the Ashcroft score, as presented in Table 2 (Ashcroft H et al. J Clin Pathol (1988) 41:467-70; Matsuse T et al. Eur Respir J (1999) 13:71-77). [table]

α-SMA = experiment: Immunohistochemical analysis of α-SMA area in lung tissue; type: in vivo, C57BL/6 mice
Procedure: as §1, §2
Specifically, the mice in each group were sacrificed upon completion of the experiment, and their lungs were excised. The excised lungs were embedded in paraffin for histopathological evaluation, and sections were obtained and mounted onto slides. Subsequently, the expression distribution of the fibrosis-related factor α-SMA in the lung tissue was evaluated.
Immunohistochemical analysis of α-SMA was performed using polyclonal anti-α-SMA antibodies. Antigen retrieval was conducted using Target Retrieval Solution pH 6 (PT Link module, DAKO). […] The de novo accumulation level of α-SMA was evaluated using digital image analysis software (Visiopharm®). The results were expressed as the percentage (%) of the α-SMA area.

[4] = system: human lung fibroblast cell line MRC5; experiment: qPCR of fibrosis-related factors in TGF-β-treated MRC5 cells; type: cell-based; settings: MRC5, TGF-β1 5 ng/mL, 48 hours
Procedure: Specifically, the human lung fibroblast cell line MRC5 was seeded at a density of 2×10^5 cells per well in a 6-well plate and incubated overnight to allow cell attachment. Subsequently, the medium was removed, and the cells were treated with TGF-β1 at a concentration of 5 ng/mL along with HY209 or TUDCA at concentrations of 0, 0.1, 1, and 10 μM, and cultured for 48 hours before collecting the cells. Following this, RNA was extracted from the cells using the RNeasy Mini Kit (QIAGEN), and cDNA was synthesized using Maxime™ RT PreMix (LiliF Diagnostic). qPCR measurements were conducted using Power SYBR™ Green PCR Master Mix (Thermo Scientific) in accordance with the manufacturer's instructions. Additionally, primers specific for Col1α1, α-SMA, and PAI-1 were utilized to assess their expression, and GAPDH was measured as the internal standard.

IL-1β = experiment: Inhibition of IL-1β production in PMA-differentiated U937 macrophages induced with BzATP (ELISA); type: cell-based, human; settings: for IC50: Homo sapiens, U-937, U937 macrophages, 12 h pretreatment, BzATP 300 μM 12 h
Procedure: (§3) To evaluate the anti-inflammatory efficacy of HY209 and TUDCA, the human monocytic cell line U937 was treated with PMA (phorbol 12-myristate 13-acetate) to induce differentiation into macrophages.
Specifically, the human monocytic cell line U937 was seeded at a density of 70,000 cells per well in a 96-well plate and cultured for 24 hours in RPMI1640 medium containing 50 nM PMA (phorbol 12-myristate 13-acetate) to induce differentiation into macrophages. The medium was then removed from each well, and HY209 or TUDCA was administered at varying concentrations (HY209: 1, 0.5, 0.25, 0.125, 0.0625, 0.0312, 0.0156, 0.0078 μM; TUDCA: 1000, 316, 100, 31.6, 10, 3.16, 0.316, 0.1, 0.0316, 0.01, 0.00316 μM) for 12 hours. Subsequently, BzATP (2′(3′)-O-(4-Benzoylbenzoyl)adenosine 5′-triphosphate) was added to each well to achieve a final concentration of 300 μM, and the cells were incubated for an additional 12 hours. The supernatants were then collected, and IL-1β levels were measured using an IL-1β ELISA kit (R&D Systems) according to the manufacturer's instructions (FIG. 7a).

TNF-α = experiment: Inhibition of TNF-α production in PMA-differentiated U937 macrophages induced with Pam2CSK4 (ELISA); type: cell-based, human; settings: for IC50: Homo sapiens, U-937, U937 macrophages, Pam2CSK4 50 ng/mL, 4 hours
Procedure: as §3
Additionally, the human monocytic cell line U937 was cultured at a density of 5×10^6 cells in a 100 mm dish containing RPMI1640 medium supplemented with 4 nM PMA (phorbol 12-myristate 13-acetate) for 5 hours to induce differentiation into macrophages. The differentiated macrophages were then seeded into a 96-well plate at a density of 50,000 cells per well and incubated for 24 hours to allow for rest. Following this, the medium was replaced with serum-free medium, and the cells were cultured for an additional 12 hours. The medium was then removed from each well, and the cells were treated with 50 ng/mL of Pam2CSK4 (Pam2CysSerLys4) along with HY209 or TUDCA at varying concentrations (HY209: 10, 4, 2, 1, 0.5, 0.25, 0.125, 0.0625, 0.03125 μM; TUDCA: 100, 50, 25, 12.5, 6.25, 3.125, 1.562, 0.76 μM) for 4 hours. The supernatants were then collected, and TNF-α levels were measured using a TNF-α ELISA kit (R&D Systems) according to the manufacturer's instructions (FIG. 7b).

[5] = 10 mg/kg oral BID Day 7-21, compared to the pulmonary fibrosis group
[6] = 60 mg/kg oral BID Day 7-21, compared to the pulmonary fibrosis group
[7] = 60 mg/kg oral BID Day 7-21, compared to the Natrosol administration group

IC50 (IL-1β) [nM] | IC50 (TNF-α) [nM] | Compound | Col1α1 expression ([4]; 0.1 μM) | PAI-1 expression ([4]; 0.1 μM) | α-SMA expression ([4]; 0.1 μM) | Col1α1 expression ([4]; 1 μM) | PAI-1 expression ([4]; 1 μM) | α-SMA expression ([4]; 1 μM) | PAI-1 expression ([4]; 10 μM) | α-SMA expression ([4]; 10 μM) | other results
44 | 360 | C[C@H](CCC(=O)NCCS(=O)(=O)O)[C@H]1CC[C@H]2[C@@H]3CC[C@@H]4C[C@H](O)CC[C@]4(C)[C@H]3C[C@H](O)[C@]12C [HY209, sodium taurodeoxycholate] | reduced the expression | inhibition | inhibition | reduced the expression | inhibition | inhibition | inhibition | inhibition | body weight changes [1]: no significant differences; lung weight [2, 5]: statistically significantly decreased; lung weight [2, 6]: statistically significantly decreased; pulmonary fibrosis (Ashcroft score) [3, 5]: statistically significantly decreased; pulmonary fibrosis (Ashcroft score) [3, 6]: statistically significantly decreased; α-SMA area (α-SMA; 10 mg/kg oral BID Day 7-21, compared to the pulmonary fibrosis group and the Natrosol administration group): significantly decreased; α-SMA area (α-SMA; HY209 60 mg/kg oral BID Day 7-21, compared to the pulmonary fibrosis group and the Natrosol administration group): significantly decreased; Col1α1 expression ([4]; 10 μM): reduced the expression; IC50 for IL-1β, times lower than that of TUDCA (IL-1β; HY209 vs TUDCA): 34 times; IC50 for TNF-α, times lower than that of TUDCA (TNF-α; HY209 vs TUDCA): 36 times
– | – | COC(=O)c1ccc2c(c1)NC(=O)/C2=C(\Nc1ccc(N(C)C(=O)CN2CCN(C)CC2)cc1)c1ccccc1 [Nintedanib, reference compound] | – | – | – | – | – | – | – | – | lung weight [2, 7]: significant decrease; pulmonary fibrosis (Ashcroft score) [3, 7]: significant reduction; α-SMA area (α-SMA; Nintedanib 60 mg/kg oral BID Day 7-21, compared to both the pulmonary fibrosis group and the Natrosol administration group): significant reduction
1500 | 13100 | C[C@H](CCC(=O)NCCS(=O)(=O)O)[C@H]1CC[C@H]2[C@@H]3[C@@H](O)C[C@@H]4C[C@H](O)CC[C@]4(C)[C@H]3CC[C@]12C [TUDCA, tauroursodeoxycholic acid, reference compound] | increase in expression | did not demonstrate inhibitory effects | did not demonstrate inhibitory effects | increase in expression | did not demonstrate inhibitory effects | did not demonstrate inhibitory effects | inhibitory effects | inhibitory effects | –
